# Experimental data reported in publication PMC12888861, “Antibacterial activity of enmetazobactam against Acinetobacter spp.: a molecular dissection of mechanism of action and resistance determinants” (Antimicrobial Agents and Chemotherapy, 2025).
# Columns and labels:
# [1] = system: carbapenem-susceptible A. baumannii isolates (n = 54); assay: MIC, broth microdilution (EUCAST), carbapenem-susceptible A. baumannii isolates; format: cell-based, Acinetobacter baumannii; conditions: for MIC: in combinations ETZ fixed at 8 mg/L
# Method in brief: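 Broth microdilution per EUCAST v.15 guidelines on clinical Acinetobacter isolates from a Spanish 2020 multicenter collection; enmetazobactam also tested alone. A. baumannii ATCC 19606 served as reference strain, in duplicate assays.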
# [2] = system: A. baumannii ATCC 19606 cells; assay: Cell morphology assay, bright-field microscopy; format: cell-based, Acinetobacter baumannii; conditions: A. baumannii ATCC 19606, overnight exposure at 1× MIC
# Description: In order to confirm the involvement of PBPs as targets of enmetazobactam, cell morphology assays involving exposure to enmetazobactam and sulbactam were performed following the methodology described in Supplementary materials and methods.
# To confirm the involvement of PBPs as targets of enmetazobactam, the cellular morphology of A. baumannii ATCC 19606 reference strain was analyzed after exposure to the compound at different concentrations. Bright-field microscopy was used to monitor the cell morphology. […] For microscopic visualization, aliquots of each sample were obtained, stained with crystal violet solution and observed using an Olympus BX61 microscope (Olympus).
# Changes in cell morphology were determined on the basis of alterations in septal integrity, abnormal elongation, spheroplast formation and filamentation, patterns previously associated with the selective inhibition of PBP1, PBP2 and PBP3 in Gram-negative bacilli. Specifically, PBP1 inhibition has been linked to cell lysis, PBP2 inhibition has been linked to spherification, and PBP3 inhibition to defective cell division and filament formation (1, 2). The results were qualitatively compared across different treatments to infer the potential selectivity of enmetazobactam for specific PBPs.
# [3] = Acinetobacter baumannii, carbapenem-susceptible A. baumannii isolates (n = 54), ETZ fixed 8 mg/L in combinations
smiles,measurement,setting,value
C[C@@H](O)[C@H]1C(=O)N2C(C(=O)O)=C(SCCN=CN)C[C@H]12 [imipenem],MIC distribution 0.12,[1],61.1
same,MIC,"[1]; Acinetobacter baumannii, isolate Ab1, ST 164, ADC-6, OXA-91",0.12 µg/mL
same,MIC,"[1]; Acinetobacter baumannii, isolate Ab11, ST 239, ADC-2, OXA-51",0.12 µg/mL
same,MIC,"[1]; Acinetobacter baumannii, isolate Ab34, ST 2182, ADC-2, OXA-130",0.25 µg/mL
same,MIC,"[1]; Acinetobacter baumannii, isolate Ab38, ST 866, ADC-2, OXA-385",0.25 µg/mL
same,MIC,"[1]; Acinetobacter baumannii, isolate Ab40, ST 2176, ADC-2, OXA-64",0.25 µg/mL
same,MIC,"[1]; Acinetobacter baumannii, isolate Ab50, ST 2176, ADC-2, OXA-64",0.25 µg/mL
same,MIC,"[1]; Acinetobacter baumannii, isolate Ab57, ST 1470, ADC-58, OXA-106",0.25 µg/mL
same,MIC,"[1]; Acinetobacter baumannii, isolate Ab58, ST 6, ADC-2, OXA-94",0.25 µg/mL
same,MIC,"[1]; Acinetobacter baumannii, isolate Ab61, ST 1639, ADC-7, OXA-64",0.12 µg/mL
same,MIC,"[1]; Acinetobacter baumannii, isolate Ab62, ST 265, ADC-2, OXA-91",0.25 µg/mL
same,MIC,"[1]; Acinetobacter baumannii, isolate Ab67, ST 1, ADC-11, OXA-69",0.25 µg/mL
same,MIC,"[1]; Acinetobacter baumannii, isolate Ab79, ST 106, ADC-11, OXA-78",0.12 µg/mL
same,MIC,"[1]; Acinetobacter baumannii, isolate Ab80, ST 2182, ADC-6, OXA-208",0.12 µg/mL
same,MIC,"[1]; Acinetobacter baumannii, isolate Ab81, ST 25, ADC-79, OXA-64",0.12 µg/mL
same,MIC,"[1]; Acinetobacter baumannii, isolate Ab93, ST 25, ADC-79, OXA-64",0.12 µg/mL
same,MIC,"[1]; Acinetobacter baumannii, isolate Ab95, ST 582, ADC-5, OXA-317",0.12 µg/mL
same,MIC,"[1]; Acinetobacter baumannii, isolate Ab96, ST 582, ADC-5, OXA-317",0.12 µg/mL
same,MIC,"[1]; Acinetobacter baumannii, isolate Ab100, ST 145, ADC-58, OXA-343",0.12 µg/mL
same,MIC,"[1]; Acinetobacter baumannii, isolate Ab110, ST 1623, ADC-3, OXA-70",0.25 µg/mL
same,MIC,"[1]; Acinetobacter baumannii, isolate Ab112, ST 193, ADC-like, OXA-120",0.12 µg/mL
same,MIC,"[1]; Acinetobacter baumannii, isolate Ab124, ST 2176, ADC-2, OXA-64",0.12 µg/mL
same,MIC,"[1]; Acinetobacter baumannii, isolate Ab127, ST 2176, ADC-2, OXA-64",0.12 µg/mL
same,MIC,"[1]; Acinetobacter baumannii, isolate Ab128, ST 2176, ADC-2, OXA-64",0.12 µg/mL
same,MIC,"[1]; Acinetobacter baumannii, isolate Ab130, ST 32, ADC-79, OXA-100",0.12 µg/mL
same,MIC,"[1]; Acinetobacter baumannii, isolate Ab131, ST 687, ADC-like, OXA-208",0.12 µg/mL
same,MIC,"[1]; Acinetobacter baumannii, isolate Ab132, ST 1112, ADC-79, OXA-89",0.12 µg/mL
same,MIC,"[1]; Acinetobacter baumannii, isolate Ab136, ST 2183, ADC-like, OXA-66",0.12 µg/mL
same,MIC,"[1]; Acinetobacter baumannii, isolate Ab139, ST 54, ADC-like, OXA-365",0.25 µg/mL
same,MIC,"[1]; Acinetobacter baumannii, isolate Ab142, ST 1, ADC-like, OXA-69",1 µg/mL
same,MIC,"[1]; Acinetobacter baumannii, isolate Ab143, ST 1328, ADC-76, OXA-408",0.12 µg/mL
same,MIC,"[1]; Acinetobacter baumannii, isolate Ab149, ST 1112, ADC-6, OXA-407",0.25 µg/mL
same,MIC,"[1]; Acinetobacter baumannii, isolate Ab150, ST 2184, ADC-like, OXA-64",0.25 µg/mL
same,MIC,"[1]; Acinetobacter baumannii, isolate Ab152, ST 132, ADC-2, OXA-120",0.25 µg/mL
same,MIC,"[1]; Acinetobacter baumannii, isolate Ab158, ST 2034, ADC-2, OXA-217",≤ 0.06 µg/mL
same,MIC,"[1]; Acinetobacter baumannii, isolate Ab163, ST 132, ADC-2, OXA-120",≤ 0.06 µg/mL
same,MIC,"[1]; Acinetobacter baumannii, isolate Ab167, ST 1623, ADC-like, OXA-345",0.12 µg/mL
same,MIC,"[1]; Acinetobacter baumannii, isolate Ab168, ST 1470, ADC-75, OXA-402",0.25 µg/mL
same,MIC,"[1]; Acinetobacter baumannii, isolate Ab170, ST 2110, ADC-4, OXA-338",0.12 µg/mL
same,MIC,"[1]; Acinetobacter baumannii, isolate Ab172, ST 2185, ADC-5, OXA-217",≤ 0.06 µg/mL
same,MIC,"[1]; Acinetobacter baumannii, isolate Ab185, ST 2, ADC-26, OXA-66",0.25 µg/mL
same,MIC,"[1]; Acinetobacter baumannii, isolate Ab187, ST 105, ADC-2, OXA-430",≤ 0.06 µg/mL
same,MIC,"[1]; Acinetobacter baumannii, isolate Ab188, ST 203, ADC-6, OXA-217, PDC-1",0.12 µg/mL
same,MIC,"[1]; Acinetobacter baumannii, isolate Ab189, ST 1405, ADC-3, OXA-120",≤ 0.06 µg/mL
same,MIC,"[1]; Acinetobacter baumannii, isolate Ab190, ST 2186, ADC-6, OXA-413",0.25 µg/mL
same,MIC,"[1]; Acinetobacter baumannii, isolate Ab193, ST 164, ADC-6, OXA-91",≤ 0.06 µg/mL
same,MIC,"[1]; Acinetobacter baumannii, isolate Ab195, ST 1, ADC-11, OXA-69",0.12 µg/mL
same,MIC,"[1]; Acinetobacter baumannii, isolate Ab200, ST 1336, ADC-2, OXA-51",0.12 µg/mL
same,MIC,"[1]; Acinetobacter baumannii, isolate Ab202, ST 1, ADC-11, OXA-69",0.12 µg/mL
same,MIC,"[1]; Acinetobacter baumannii, isolate Ab203, ST 221, ADC-6, OXA-88",0.12 µg/mL
same,MIC,"[1]; Acinetobacter baumannii, isolate Ab206, ST 2187, ADC-58, OXA-69",0.25 µg/mL
same,MIC,"[1]; Acinetobacter baumannii, isolate Ab209",0.25 µg/mL
same,MIC,"[1]; Acinetobacter baumannii, isolate Ab213",0.12 µg/mL
same,MIC,"[1]; Acinetobacter baumannii, isolate Ab218",0.25 µg/mL
same,MIC,"[1]; Acinetobacter baumannii, isolate Ab220",0.25 µg/mL
same,MIC50,[1]; [3],0.12 µg/mL
same,MIC90,[1]; [3],0.25 µg/mL
same,MIC distribution 0.25,"[1]; cumulative share of carbapenem-susceptible A. baumannii isolates (n = 54) at MIC 0.25 mg/L, ETZ fixed 8 mg/L in combinations",98.1
same,MIC distribution 0.5,"[1]; cumulative share of carbapenem-susceptible A. baumannii isolates (n = 54) at MIC 0.5 mg/L, ETZ fixed 8 mg/L in combinations",98.1
same,MIC distribution 1,"[1]; cumulative share of carbapenem-susceptible A. baumannii isolates (n = 54) at MIC 1 mg/L, ETZ fixed 8 mg/L in combinations",100
same,MIC distribution 2,"[1]; cumulative share of carbapenem-susceptible A. baumannii isolates (n = 54) at MIC 2 mg/L, ETZ fixed 8 mg/L in combinations",100
same,MIC distribution 4,"[1]; cumulative share of carbapenem-susceptible A. baumannii isolates (n = 54) at MIC 4 mg/L, ETZ fixed 8 mg/L in combinations",100
same,MIC distribution 8,"[1]; cumulative share of carbapenem-susceptible A. baumannii isolates (n = 54) at MIC 8 mg/L, ETZ fixed 8 mg/L in combinations",100
same,MIC distribution 16,"[1]; cumulative share of carbapenem-susceptible A. baumannii isolates (n = 54) at MIC 16 mg/L, ETZ fixed 8 mg/L in combinations",100
same,MIC distribution ≤0.06,"[1]; cumulative share of carbapenem-susceptible A. baumannii isolates (n = 54) at MIC ≤0.06 mg/L, ETZ fixed 8 mg/L in combinations",11.1
same,MIC distribution ≥32,"[1]; cumulative share of carbapenem-susceptible A. baumannii isolates (n = 54) at MIC ≥32 mg/L, ETZ fixed 8 mg/L in combinations",100
same,cell morphology,[2],rounded and spherical cells
